We go through three compounds from publication PMC4297936 (Redox Biology, 2014).

Test [1] concerns the target T1, mitochondrial complex I (NADH: ubiquinone oxidoreductase) (Mus musculus, UniProt P03888+Q91WD5+Q9DC70). Nature of the test: NADH: ubiquinone oxidoreductase activity. The following applies: read-out: % inhibition at 20 μM. In kind it is cell-based.
Test [2] deals with T1, mitochondrial complex I (NADH: ubiquinone oxidoreductase). Description: NADH: ubiquinone oxidoreductase activity. Type of test: biochemical.
Test [3] deals with mitochondrial complex II (succinate: ubiquinone oxidoreductase) (Mus musculus, UniProt Q8K2B3+Q9CQA3+Q9CXV1+Q9CZB0). Nature of the test: succinate: ubiquinone oxidoreductase activity, DCPIP reduction. In kind it is biochemical.
Sequence of mitochondrial complex II (succinate: ubiquinone oxidoreductase) (Q8K2B3 43-664): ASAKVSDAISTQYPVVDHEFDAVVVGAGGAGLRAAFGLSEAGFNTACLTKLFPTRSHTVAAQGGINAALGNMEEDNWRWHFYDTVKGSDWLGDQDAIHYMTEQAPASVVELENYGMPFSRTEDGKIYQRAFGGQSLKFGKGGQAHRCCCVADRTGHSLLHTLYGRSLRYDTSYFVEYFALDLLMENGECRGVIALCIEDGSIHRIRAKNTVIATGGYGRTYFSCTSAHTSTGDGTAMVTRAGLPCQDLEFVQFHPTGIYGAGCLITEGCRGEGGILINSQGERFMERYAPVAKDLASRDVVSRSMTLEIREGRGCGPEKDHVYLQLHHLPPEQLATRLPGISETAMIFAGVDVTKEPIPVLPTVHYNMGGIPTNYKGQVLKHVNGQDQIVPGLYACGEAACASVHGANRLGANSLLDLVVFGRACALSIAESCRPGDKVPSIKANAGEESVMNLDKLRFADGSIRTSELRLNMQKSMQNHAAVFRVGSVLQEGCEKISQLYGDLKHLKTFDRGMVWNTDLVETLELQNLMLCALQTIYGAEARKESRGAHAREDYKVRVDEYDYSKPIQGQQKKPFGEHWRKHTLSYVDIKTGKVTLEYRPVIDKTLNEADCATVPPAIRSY
Sequence of mitochondrial complex II (succinate: ubiquinone oxidoreductase) (Q9CQA3 31-282): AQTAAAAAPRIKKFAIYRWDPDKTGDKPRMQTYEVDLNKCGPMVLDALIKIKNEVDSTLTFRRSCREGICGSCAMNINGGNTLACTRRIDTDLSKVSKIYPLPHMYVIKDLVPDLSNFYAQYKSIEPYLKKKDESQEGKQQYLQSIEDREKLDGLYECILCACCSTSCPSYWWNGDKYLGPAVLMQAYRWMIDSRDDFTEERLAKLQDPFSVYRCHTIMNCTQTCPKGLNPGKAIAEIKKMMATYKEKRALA
Sequence of mitochondrial complex II (succinate: ubiquinone oxidoreductase) (Q9CZB0 30-169): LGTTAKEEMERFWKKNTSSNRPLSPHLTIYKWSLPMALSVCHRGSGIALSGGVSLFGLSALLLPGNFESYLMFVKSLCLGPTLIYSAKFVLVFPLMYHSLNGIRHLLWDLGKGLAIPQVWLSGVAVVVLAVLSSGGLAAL
Sequence of mitochondrial complex II (succinate: ubiquinone oxidoreductase) (Q9CXV1 57-159): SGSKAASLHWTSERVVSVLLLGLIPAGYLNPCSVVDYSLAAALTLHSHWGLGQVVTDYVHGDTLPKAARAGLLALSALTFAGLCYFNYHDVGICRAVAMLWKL

One may read the inhibition as the share of the control response that was lost under treatment. Regarding `C=C(C)[C@H]1Cc2c(ccc3c2O[C@@H]2COc4cc(OC)c(OC)cc4[C@@H]2C3=O)O1` [ROT, rotenone], the inhibition at 20 µM in test [1] was approximately 50%.

As a reminder, the IC50 is the concentration needed to halve the response being measured. In turn, `O=C1Nc2ccc(Cl)cc2[C@@](C#CC2CC2)(C(F)(F)F)O1` [EFV, efavirenz] had a half-maximal inhibitory concentration (IC50) in test [2] of approximately 30 µM. `NN` [HzN, hydrazine]: the IC50 in test [3] is approximately 30 µM.
